According to patent publication US20130164384A1, “METHODS OF TREATING BOWEL DISEASES BY ADMINISTERING A BOWEL CLEANSER AND AN ANTIBIOTIC” (Salix Pharmaceuticals, Ltd., priority 2008, published 2013):

Test system: subjects with dIBS
Assay: Study of three rifaximin doses in subjects with dIBS: adequate relief of IBS symptoms and bloating
Type: in vivo, human
Settings: for Adequate Relief of Bloating: Success / Adequate Relief of IBS Symptoms: Failure / Adequate Relief of IBS Symptoms: Success / Adequate Relief of Bloating: Failure: end of treatment phase
Procedure: This example relates to a study of three rifaximin doses in subjects with dIBS. Subjects were randomized to receive daily BID doses of rifaximin 275 mg, 550 mg, or 1100 mg for 14 days. A fifth group of subjects received rifaximin 550 mg BID for a period of 28 days. Subjects were questioned on the relief of overall IBS symptoms and bloating. […] The analyses defined success as a “yes” response to questions regarding adequate relief of SGA or IBS-B in at least 2 out of the final 3 weeks of the double-blind treatment period.
Baseline severity was determined using 7-point Lickert scales during screening for Abdominal Pain/Discomfort and Bloating, and the number, type (normal, hard, loose) and urgency of bowel movements.
Duration of effect was assessed in a 12 week follow-up period. Subjects that responded in the 4 week double-blind treatment period were followed for an additional 3 months. Fifty-three (53) subjects from the 550 mg 2 w and 59 subjects from the placebo-treated groups participated in this study phase.
Subjects recorded the following information on dIBS symptoms daily throughout the duration of the study: • Number of normal stools/day; • Number of hard and lumpy stools/day; • Number of loose or watery stools/day; • Number of loose or watery stools/day with the symptom of urgency; • How bothersome is abdominal pain and discomfort? [7-point response scale: 0 (not at all) to 6 (a very great deal)]; • How bothersome is bloating? [(7-point response scale: 0 (not at all) to 6 (a very great deal)].
Weekly summary variables were computed by averaging the recorded values over all pre-treatment days or over the seven days preceding the time point of interest for post-treatment assessments. For example, baseline included Days −10 to 0, Week 1 included Days 1 to 7, Week 2 included Days 8 to 14, and so forth through Week 16. Changes from baseline variables were computed for each weekly summary score.

[1] = RFX 550 2 w (550 mg BID 14 days), had screening colonoscopy, Average Bloating Discomfort Score at Baseline >4
[2] = RFX 550 4 w (550 mg BID 28 days), Had a Screening Colonoscopy: No
[3] = RFX 550 4 w (550 mg BID 28 days), Had a Screening Colonoscopy: Yes
[4] = RFX 550 4 w (550 mg BID 28 days), Screening Colonoscopy <=26 Days
[5] = RFX 550 4 w (550 mg BID 28 days), Screening Colonoscopy >26 Days
[6] = RFX 550 4 w (550 mg BID 28 days), had screening colonoscopy, Average Abdominal Pain Discomfort Score at Baseline <=4
[7] = RFX 550 4 w (550 mg BID 28 days), had screening colonoscopy, Average Abdominal Pain Discomfort Score at Baseline >4
[8] = RFX 550 4 w (550 mg BID 28 days), had screening colonoscopy, Average Bloating Discomfort Score at Baseline <=4
[9] = RFX 550 4 w (550 mg BID 28 days), had screening colonoscopy, Average Bloating Discomfort Score at Baseline >4
[10] = RFX 1100 2 w (1100 mg BID 14 days), Had a Screening Colonoscopy: No
[11] = RFX 1100 2 w (1100 mg BID 14 days), Had a Screening Colonoscopy: Yes
[12] = RFX 1100 2 w (1100 mg BID 14 days), Screening Colonoscopy <=26 Days
[13] = RFX 1100 2 w (1100 mg BID 14 days), Screening Colonoscopy >26 Days
[14] = RFX 1100 2 w (1100 mg BID 14 days), had screening colonoscopy, Average Abdominal Pain Discomfort Score at Baseline <=4
[15] = RFX 1100 2 w (1100 mg BID 14 days), had screening colonoscopy, Average Abdominal Pain Discomfort Score at Baseline >4
[16] = RFX 1100 2 w (1100 mg BID 14 days), had screening colonoscopy, Average Bloating Discomfort Score at Baseline <=4
[17] = RFX 1100 2 w (1100 mg BID 14 days), had screening colonoscopy, Average Bloating Discomfort Score at Baseline >4

SMILES: COC1/C=C/OC2(C)Oc3c(C)c(O)c4c(O)c(c5c(nc6cc(C)ccn65)c4c3C2=O)NC(=O)/C(C)=C\C=C\C(C)C(O)C(C)C(O)C(C)C(OC(C)=O)C1C [RFX, (2S,16Z,18E,20S,21S,22R,23R,24R,25S,26S,27S,28E)-5,6,21,23,25 Pentahydroxy-27-methoxy-2,4,11,16,20,22,24,26-octamethyl-2,7-(epoxypentadeca-(1,11,13)trienimino)benzofuro(4,5-e)pyrido(1,2,-a)benzimidazole-1,15(2H)-dione,25-acetate]
- Adequate Relief of Bloating: Success [1]: 8 (50.0%) n (%)
- Adequate Relief of IBS Symptoms: Failure [1]: 8 (50.0%) n (%)
- Adequate Relief of IBS Symptoms: Success [1]: 8 (50.0%) n (%)
- Adequate Relief of Bloating: Failure [2]: 37 (64.9%) n (%)
- Adequate Relief of Bloating: Success [2]: 20 (35.1%) n (%)
- Adequate Relief of IBS Symptoms: Failure [2]: 35 (61.4%) n (%)
- Adequate Relief of IBS Symptoms: Success [2]: 22 (38.6%) n (%)
- Adequate Relief of Bloating: Failure [3]: 23 (56.1%) n (%)
- Adequate Relief of Bloating: Success [3]: 18 (43.9%) n (%)
- Adequate Relief of IBS Symptoms: Failure [3]: 22 (53.7%) n (%)
- Adequate Relief of IBS Symptoms: Success [3]: 19 (46.3%) n (%)
- Adequate Relief of Bloating: Failure [4]: 12 (48.0%) n (%)
- Adequate Relief of Bloating: Success [4]: 13 (52.0%) n (%)
- Adequate Relief of IBS Symptoms: Failure [4]: 11 (44.0%) n (%)
- Adequate Relief of IBS Symptoms: Success [4]: 14 (56.0%) n (%)
- Adequate Relief of Bloating: Failure [5]: 11 (68.8%) n (%)
- Adequate Relief of Bloating: Success [5]: 5 (31.3%) n (%)
- Adequate Relief of IBS Symptoms: Failure [5]: 11 (68.8%) n (%)
- Adequate Relief of IBS Symptoms: Success [5]: 5 (31.3%) n (%)
- Adequate Relief of Bloating: Failure [6]: 19 (59.4%) n (%)
- Adequate Relief of Bloating: Success [6]: 13 (40.6%) n (%)
- Adequate Relief of IBS Symptoms: Failure [6]: 19 (59.4%) n (%)
- Adequate Relief of IBS Symptoms: Success [6]: 13 (40.6%) n (%)
- Adequate Relief of Bloating: Failure [7]: 4 (44.4%) n (%)
- Adequate Relief of Bloating: Success [7]: 5 (55.6%) n (%)
- Adequate Relief of IBS Symptoms: Failure [7]: 3 (33.3%) n (%)
- Adequate Relief of IBS Symptoms: Success [7]: 6 (66.7%) n (%)
- Adequate Relief of Bloating: Failure [8]: 15 (57.7%) n (%)
- Adequate Relief of Bloating: Success [8]: 11 (42.3%) n (%)
- Adequate Relief of IBS Symptoms: Failure [8]: 15 (57.7%) n (%)
- Adequate Relief of IBS Symptoms: Success [8]: 11 (42.3%) n (%)
- Adequate Relief of Bloating: Failure [9]: 8 (53.3%) n (%)
- Adequate Relief of Bloating: Success [9]: 7 (46.7%) n (%)
- Adequate Relief of IBS Symptoms: Failure [9]: 7 (46.7%) n (%)
- Adequate Relief of IBS Symptoms: Success [9]: 8 (53.3%) n (%)
- Adequate Relief of Bloating: Failure [10]: 30 (66.7%) n (%)
- Adequate Relief of Bloating: Success [10]: 15 (33.3%) n (%)
- Adequate Relief of IBS Symptoms: Failure [10]: 27 (60.0%) n (%)
- Adequate Relief of IBS Symptoms: Success [10]: 18 (40.0%) n (%)
- Adequate Relief of Bloating: Failure [11]: 31 (57.4%) n (%)
- Adequate Relief of Bloating: Success [11]: 23 (42.6%) n (%)
- Adequate Relief of IBS Symptoms: Failure [11]: 31 (57.4%) n (%)
- Adequate Relief of IBS Symptoms: Success [11]: 23 (42.6%) n (%)
- Adequate Relief of Bloating: Failure [12]: 20 (55.6%) n (%)
- Adequate Relief of Bloating: Success [12]: 16 (44.4%) n (%)
- Adequate Relief of IBS Symptoms: Failure [12]: 19 (52.8%) n (%)
- Adequate Relief of IBS Symptoms: Success [12]: 17 (47.2%) n (%)
- Adequate Relief of Bloating: Failure [13]: 11 (61.1%) n (%)
- Adequate Relief of Bloating: Success [13]: 7 (38.9%) n (%)
- Adequate Relief of IBS Symptoms: Failure [13]: 12 (66.7%) n (%)
- Adequate Relief of IBS Symptoms: Success [13]: 6 (33.3%) n (%)
- Adequate Relief of Bloating: Failure [14]: 22 (50.0%) n (%)
- Adequate Relief of Bloating: Success [14]: 22 (50.0%) n (%)
- Adequate Relief of IBS Symptoms: Failure [14]: 23 (52.3%) n (%)
- Adequate Relief of IBS Symptoms: Success [14]: 21 (47.7%) n (%)
- Adequate Relief of Bloating: Failure [15]: 9 (90.0%) n (%)
- Adequate Relief of Bloating: Success [15]: 1 (10.0%) n (%)
- Adequate Relief of IBS Symptoms: Failure [15]: 8 (80.0%) n (%)
- Adequate Relief of IBS Symptoms: Success [15]: 2 (20.0%) n (%)
- Adequate Relief of Bloating: Failure [16]: 21 (47.7%) n (%)
- Adequate Relief of Bloating: Success [16]: 23 (52.3%) n (%)
- Adequate Relief of IBS Symptoms: Failure [16]: 21 (47.7%) n (%)
- Adequate Relief of IBS Symptoms: Success [16]: 23 (52.3%) n (%)
- Adequate Relief of Bloating: Failure [17]: 10 (100.0%) n (%)
- Adequate Relief of Bloating: Success [17]: 0 n (%)
- Adequate Relief of IBS Symptoms: Failure [17]: 10 (100.0%) n (%)
- Adequate Relief of IBS Symptoms: Success [17]: 0 n (%)
- Likelihood of treatment effect with a purgative prior to rifaximin versus no cleanser (purgative prior to treatment): much more likely to have a treatment effect
- Rate of success in relief of symptoms with screening colonoscopy (GI cleanser) prior to rifaximin (subjects who had a screening colonoscopy): higher rate of success in relief of symptoms
